Like-named read-outs stand apart in the source and are kept apart here. A value given as a limit tells only on which side of the number the result lay.

One assay concerns the target Cathepsin D (Cat D) (Homo sapiens (Human), UniProt P07339). Put plainly: In vitro enzymatic Cathepsin D (Cat D) FRET assay. It counts as biochemical. The settings on record: read-out: CatD IC50. How it is done: In Vitro Enzymatic Cathepsin D (Cat D) FRET (Fluorescence Resonance Energy Transfer) Assay Recombinant Cat D was expressed in CHO cells. […] The Cat D enzyme (9 nM) is pre-incubated for one hour with inhibitors, typically in about 1 uL of DMSO according to a serial dilution, is added thereto. […] The FRET assay is terminated with by addition of Tris buffer, which raises the pH to neutrality, and the fluorescence is determined. The FRET substrate is a peptide with commercially available fluorophore and quencher, on opposite sides of the BACE cleavage site. The Cat D substrate peptide sequence is based on sequence #1 of Table 1 from Gulnik et al. […] Where available, the in-vitro Cat D FRET assay data for each of the Examples, conducted by the first procedure, is provided.

Assay [1] concerns the target Beta Secretase enzyme (BACE1) (Homo sapiens (Human), UniProt P56817). In words: In vitro enzymatic BACE FRET assay. The format is biochemical. How it is done:
In Vitro Enzymatic BACE FRET (Fluorescence Resonance Energy Transfer) Assay (Enzyme Assay Data in the Example Tables I and II)
The assay buffer used in this screen is 0.05 M acetate, pH 4.2, 10% DMSO final, 100 uM genapol (which is a nonionic detergent, below its Critical Micelle Concentration). […] This assay is effectively started by the addition of FRET substrate (50 nM) and the combination is incubated for one hour. The FRET assay is terminated with by addition of Tris buffer, which raises the pH to neutrality, and the fluorescence is determined. The FRET substrate is a peptide with commercially available fluorophore and quencher, on opposite sides of the BACE cleavage site. Proteolytic cleavage of the FRET substrate releases quenching of fluorescence (excitation […] and […]).

Assay [2] has as its system Aβ40 in conditioned medium of cells stably expressing Amyloid Precursor Protein (APP). Put plainly: In vitro BACE cell-based assay (HEK cell assay), Aβ40 sandwich ELISA. As for the experimental part: In Vitro BACE Cell-Based Assay
The cell-based assay measures inhibition or reduction of Aβ40 in conditioned medium of test compound treated cells expressing amyloid precursor protein.
Cells stably expressing Amyloid Precursor Protein (APP) were plated at a density of 40K cells/well in 96 well plates (Costar). The cells were cultivated for 24 hours at 37° C. and 5% CO2 in DMEM supplemented with 10% FBS. The test compounds were then added to cells in 10-point dose response concentrations with the starting concentration being either 100 μM or 10 μM. The compounds were diluted from stock solutions in DMSO and the final DMSO concentration of the test compounds on cells was 0.1%. After 24 h of incubation with the test compounds the supernatant conditioned media was collected and the Aβ 40 levels were determined using a sandwich ELISA. The IC50 of the compound was calculated from the percent of control or percent inhibition of Aβ 40 as a function of the concentration of the test compound.
The sandwich ELISA to detect Aβ 40 was performed in 96 well microtiter plates, which were pre-treated with goat anti-rabbit IgG (Pierce). The capture and detecting antibody pair that were used to detect Aβ 40 from cell supernatants were affinity purified pAb40 (Biosource) and biotinylated 6E10 (Signet Labs Inc.), respectively. The optimal concentration for the pAb40 antibody was 3 μg/ml in Superblock/TBS (Pierce) that was supplemented with 0.05% Tween 20 (Sigma).
Cellular supernatants were incubated with the capture antibody for 3 h at 4° C., followed by 3 wash steps in TBS-tween (0.05%). The detecting antibody incubation was for 2 h at 4° C., again followed by the wash steps as described previously. The final readout of the ELISA is Time-Resolved Fluorescence (counts per minute) using Delfia reagents Streptavidin-Europium and Enhancement solutions (Perkin Elmer) and the Victor 2 multilabel counter (Perkin Elmer).
(In general: ELISA stands for enzyme-linked immunosorbent assay.)

A further assay concerns Abeta 40. In words: In vivo inhibition of beta-secretase: Abeta 40 reduction in CSF and brain of the rat. The settings on record: 10 mpk (unless otherwise noted), after 4 hrs.

Beta Secretase enzyme (BACE1), sequence (P56817 46-501): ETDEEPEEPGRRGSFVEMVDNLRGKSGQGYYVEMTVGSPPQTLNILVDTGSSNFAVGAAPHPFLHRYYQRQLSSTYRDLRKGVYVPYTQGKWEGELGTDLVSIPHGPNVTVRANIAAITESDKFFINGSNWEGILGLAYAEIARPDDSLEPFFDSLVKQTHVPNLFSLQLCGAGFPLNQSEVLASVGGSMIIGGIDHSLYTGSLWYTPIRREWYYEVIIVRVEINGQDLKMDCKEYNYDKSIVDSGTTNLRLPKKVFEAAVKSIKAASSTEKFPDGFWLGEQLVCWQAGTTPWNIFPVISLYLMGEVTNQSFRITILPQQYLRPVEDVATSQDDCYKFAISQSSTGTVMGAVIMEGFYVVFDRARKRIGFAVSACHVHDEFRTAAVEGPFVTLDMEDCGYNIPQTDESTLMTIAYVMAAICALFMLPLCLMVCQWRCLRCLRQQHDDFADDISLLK
Cathepsin D (Cat D), sequence (P07339 65-412, species assumed): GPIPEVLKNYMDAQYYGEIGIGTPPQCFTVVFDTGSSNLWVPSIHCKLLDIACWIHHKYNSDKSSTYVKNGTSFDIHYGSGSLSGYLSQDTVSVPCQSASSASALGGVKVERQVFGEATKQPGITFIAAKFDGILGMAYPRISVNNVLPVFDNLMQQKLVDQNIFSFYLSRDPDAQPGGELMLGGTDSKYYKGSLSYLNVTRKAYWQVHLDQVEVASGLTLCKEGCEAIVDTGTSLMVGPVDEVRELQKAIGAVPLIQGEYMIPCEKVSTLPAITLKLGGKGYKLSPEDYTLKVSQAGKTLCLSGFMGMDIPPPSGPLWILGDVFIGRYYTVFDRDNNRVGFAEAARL

Regarding `CC1(C)C(N)=N[C@]2(c3cc(N)ccc3F)COC[C@@H]2S1(=O)=O` [Example 185d, (4aR,7aR)-3-amino-4a-(5-amino-2-fluorophenyl)-2,2-dimethyl-4a,5,7,7a-tetrahydro-2H-furo[3,4-b][1,4]thiazine 1,1-dioxide], the IC50 (usually the midpoint of a concentration-inhibition curve) at Cathepsin D (Cat D) (Cathepsin D FRET assay) is 152 µM; in assay [1] (average IC50, enzyme assay), 3.83 µM. Turning to “N-(3-((4aR,7aR)-3-amino-2,2-dimethyl-1,1-dioxido-7,7a-dihydro-2H-furo[3,4-b][1,4]thiazin-4a(5H)-yl)-4-fluorophenyl)-5-(difluoromethoxy)-3-methyl-2-pyridinecarboxamide,N-(3-((4aS,7aS)-3-amino-2,2-dimethyl-1,1-dioxido-7,7a-dihydro-2H-furo[3,4-b][1,4]thiazin-4a(5H)-yl)-4-fluorophenyl)-5-(difluoromethoxy)-3-methyl-2-pyridinecarboxamide [Example 413]”, the IC50 at Cathepsin D (Cat D) is 111 µM; in assay [1] (average IC50), 0.00265 µM; in assay [2] (average IC50) it was 0.0103 µM. “N-(3-((4aR,7aS)-3-amino-2,2-dimethyl-1,1-dioxido-7,7a-dihydro-2H-furo[3,4-b][1,4]thiazin-4a(5H)-yl)-4-fluorophenyl)-5-chloro-2-pyridinecarboxamide,N-(3-((4aS,7aR)-3-amino-2,2-dimethyl-1,1-dioxido-7,7a-dihydro-2H-furo[3,4-b][1,4]thiazin-4a(5H)-yl)-4-fluorophenyl)-5-chloro-2-pyridinecarboxamide [Example 426]”: the IC50 amounted to 170 µM at Cathepsin D (Cat D); 0.0015 µM in assay [1] (average IC50, enzyme assay); 0.0136 µM in assay [2] (average IC50, cell assay). In turn, `CC1(C)C(N)=N[C@](CF)(c2cc(Nc3nccc4cc(Cl)cnc34)ccc2F)CS1(=O)=O` [Example 448, N-(3-((3S)-5-amino-3-(fluoromethyl)-6,6-dimethyl-1,1-dioxido-3,6-dihydro-2H-1,4-thiazn-3-yl)-4-fluorophenyl)-3-chloro-1,7-naphthyridin-8-amine] registered an IC50 in assay [2] (average IC50, cell assay) of 0.0285 µM.

On to “N-(3-((4aR,7aS)-3-amino-2,2-dimethyl-1,1-dioxido-7,7a-dihydro-2H-furo[3,4-b][1,4]thiazin-4a(5H)-yl)-4-fluorophenyl)-5-chloro-3-methyl-2-pyridinecarboxamide,N-(3-((4aS,7aR)-3-amino-2,2-dimethyl-1,1-dioxido-7,7a-dihydro-2H-furo[3,4-13][1,4]thiazin-4a(5H)-yl)-4-fluorophenyl)-5-chloro-3-methyl-2-pyridinecarboxamide [Example 427]”, for which the IC50 was 220 µM on Cathepsin D (Cat D); 0.001 µM in assay [1] (average IC50, enzyme assay); 0.033 µM in assay [2] (average IC50, cell assay). In assay [2] (average IC50), `CC1(C)C(N)=N[C@](C)(c2cc(Nc3ncnc4cc(C#N)cnc34)cnc2F)CS1(=O)=O` [Example 384] had a half-inhibitory concentration (IC50) of 0.0239 µM. For `COc1cnc(C(=O)Nc2cc([C@@]3(C)CS(=O)(=O)C(C)(C)C(N)=N3)c(F)cn2)cn1` [Example 142, (S)—N-(4-(5-amino-3,6,6-trimethyl-1,1-dioxido-3,6-dihydro-2H-1,4-thiazin-3-yl)-5-fluoropyridin-2-yl)-5-methoxypyrazine-2-carboxamide], the IC50 is above 400 µM at Cathepsin D (Cat D); 10 µM in assay [1] (average IC50); 4.36 µM in assay [2] (Homo sapiens, HEK293, average IC50). `CC1(C)C(N)=N[C@](C)(c2cc(Nc3ccc4c(c3)OC(F)(F)O4)cnc2F)CS1(=O)=O` [Example 414, (5R)-5-(5-((2,2-difluoro-1,3-benzodioxo1-5-yl)amino)-2-fluoro-3-pyridinyl)-2,2,5-trimethyl-5,6-dihydro-2H-1,4-thiazin-3-amine 1,1-dioxide] showed an IC50 in assay [2] (average IC50) of 2.53 µM. Consider `C[C@]1(c2cc(NC(=O)c3cnc(C(F)F)cn3)ccc2F)N=C(N)C2(CCC2)S(=O)(=O)[C@@H]1F` [Example 140, N-(3-((6S,7R)-9-amino-6-fluoro-7-methyl-5,5-dioxido-5-thia-8-azaspiro[3.5]non-8-en-7-yl)-4-fluorophenyl)-5-(difluoromethyl)pyrazine-2-carboxamide], for which, at Cathepsin D (Cat D), the IC50 amounted to 400 µM. `COc1cnc(C(=O)Nc2ccc(F)c([C@]34COC[C@H]3S(=O)(=O)C(C)(C)C(N)=N4)c2)c(C)c1` [Example 430, N-(3-((4aS,7aS)-3-amino-2,2-dimethyl-1,1-dioxido-7,7a-dihydro-2H-furo[3,4-13][1,4]thiazin-4a(5H)-yl)-4-fluorophenyl)-5-methoxy-3-methyl-2-pyridinecarboxamide]: the “% reduction of rat CSF levels at 10 pmk” value in the assay with Abeta 40 (rat CSF) is recorded as 31%. In addition, the “% reduction of rat brain levels at 10 mpk” value in the assay on Abeta 40 (rat brain) turned out to be 1%. The IC50 turned out to be 0.0041 µM in assay [1] (average IC50, enzyme assay) and 0.0117 µM in assay [2] (average IC50, cell assay). On to `CC1(C)C(N)=NC2(c3cc(Br)ccc3F)COCC2S1(=O)=O` (stereo not shown) [Example 185, 3-amino-4a-(5-bromo-2-fluorophenyl)-2,2-dimethyl-4a,5,7,7a-tetrahydro-2H-furo[3,4-b][1,4]thiazine 1,1-dioxide], for which the IC50 on Cathepsin D (Cat D) was determined as 322 µM; in assay [1] (average IC50, enzyme assay), 30.2 µM. Turning to `Cc1ccc(Oc2ccc(F)c([C@]3(C)CS(=O)(=O)C(C)(C)C(N)=N3)c2)nc1` [Example 265, (5R)-5-(2-fluoro-5-((5-methyl-2-pyridinyl)oxy)phenyl)-2,2,5-3-amine 1,1-dioxide trimethyl-5,6-dihydro-2H-1,4-thiazin-3-amine 1,1-dioxide], the 50% inhibitory concentration (IC50) in assay [2] (average IC50) was found to be 0.804 µM. For `CC1(C)C(N)=N[C@@]2(c3cc(N)ccc3F)COC[C@H]2S1(=O)=O` [Example 185c, (4aS,7aS)-3-amino-4a-(5-amino-2-fluorophenyl)-2,2-dimethyl-4a,5,7,7a-tetrahydro-2H-furo[3,4-b][1,4]thiazine 1,1-dioxide], the IC50 at Cathepsin D (Cat D) (Cathepsin D FRET assay) was above 400 µM; in assay [1] (average IC50, enzyme assay), above 40 µM. Consider `COc1cnc(C(=O)Nc2ccc(F)c([C@]3(C)CSCC(N)=N3)c2)cn1` [Example 43, (R)—N-(3-(5-amino-3-methyl-3,6-dihydro-2H-1,4-thiazin-3-yl)-4-fluorophenyl)-5-methoxypyrazine-2-carboxamide], for which the IC50 on Cathepsin D (Cat D) is above 400 µM. Regarding `CC1(C)C(N)=N[C@](C)(c2cc(Nc3nccc4cc(Cl)cnc34)cc(F)c2F)CS1(=O)=O` [Example 69, (R)-5-Amino-3-(5-((3-chloro-1,7-naphthyridin-8-yl)amino)-2,3-difluorophenyl)-3,6,6-trimethyl-3,6-dihydro-2H-1,4-thiazine 1,1-dioxide], the results for the IC50 (at Cathepsin D (Cat D); in assay [1]) were 11.3 µM and 0.0014 µM, respectively. Regarding `CC1(C)C(N)=N[C@](C)(c2cc(NC(=O)c3cc4ccccc4cn3)ccc2F)CS1(=O)=O` [Example 343], 0.0107 µM corresponded to half-maximal inhibition in assay [2] (average IC50, cell assay (Table II)) (IC50). As to `CC1(C)C(N)=N[C@]2(c3cc(Br)ccc3F)COC[C@@H]2S1(=O)=O` [Example 185b, (4aR,7aR)-3-amino-4a-(5-bromo-2-fluorophenyl)-2,2-dimethyl-4a,5,7,7a-tetrahydro-2H-furo[3,4-b][1,4]thiazine 1,1-dioxide], the IC50 on Cathepsin D (Cat D) is above 400 µM; in assay [1] (average IC50, enzyme assay), above 40 µM.

Consider `CC1(C)C(N)=N[C@@]2(c3cc(Br)ccc3F)COC[C@H]2S1(=O)=O` [Example 185a, (4aS,7aS)-3-amino-4a-(5-bromo-2-fluorophenyl)-2,2-dimethyl-4a,5,7,7a-tetrahydro-2H-furo[3,4-b][1,4]thiazine 1,1-dioxide], for which the IC50 at Cathepsin D (Cat D) is 70.9 µM; in assay [1] (average IC50, enzyme assay) it was 4.83 µM. On to `COc1cnc2c(Nc3cnc(F)c([C@]4(C)CS(=O)(=O)C(C)(C)C(N)=N4)c3)nccc2c1` [Example 66, N-(5-((3R)-5-amino-3,6,6-trimethyl-1,1-dioxido-3,6-dihydro-2H-1,4-thiazin-3-yl)-6-fluoro-3-pyridinyl)-3-methoxy-1,7-naphthyridin-8-amine], for which the IC50 is 101 µM on Cathepsin D (Cat D) and 0.0043 µM in assay [1].

The record behind these values is patent publication US9556135B2, “Amino-dihydrothiazine and amino-dioxido dihydrothiazine compounds as beta-secretase antagonists and methods of use” (Amgen Inc., priority 2012, dated 2017).
